Where two headings read alike, the source gives them in different places. Bridges are numbered along the chain shown (N, C = ends). Where no end group is shown, it is not given here.
Target: T1, human C5 (Homo sapiens, UniProt P01031)
T1 construct: tissue TCS Biosciences (serum); host or cells: human serum
Experiment: SPR multi-cycle kinetics, binding to C5
Conditions: for fold drop in affinity of alanine mutant: relative to unmodified K8 or K92, SPR multi-cycle kinetics, n = 3
Protocol: Kinetics were measured using a Biacore 8K (GE Healthcare, Amersham, UK) with a CM5 chip, which was prepared as follows: 1-ethyl-3-(−3-dimethylaminopropyl) carbodiimide hydrochloride (EDC)/N-hydroxysuccinimide (NHS) was mixed at 1:1 ratio (flow rate, 10 µL/min; contact time, 30 s), and human C5 at 1 µg/mL in pH 4.5 sodium acetate buffer was injected over flow cell one only (flow rate, 10 µL/min; contact time, 60 s). Final immobilisation levels in the range of 2000–3000 RUs were obtained to yield theoretical Rmax values of ~50–60 RU. […] After each injection, the surface was regenerated with two sequential injections of 2 M MgCl2 (flow rate, 30 µL/min; contact time, 30 s). Binding to the reference surface was subtracted, and the data were fitted to a single-site binding model using Biacore evaluation software.
Table 2.6. Validation of molecular interactions by peptide mutagenesis analysis.
Summary of SPR multi-cycle kinetics

[1] = Biacore 8K, HBS-EP pH 7.4, single-site model, mean of n=3, read-out: mean KD
[2] = pH 7.4, read-out: mean koff, Biacore 8K, HBS-EP pH 7.4, mean of n=3
[3] = pH 7.4, read-out: mean kon, Biacore 8K, CM5 chip, HBS-EP pH 7.4, mean of n=3

Kd [1] [nM] | Kd (replicate n=1, read-out: KD) [nM] | Kd (replicate n=2, read-out: KD) [nM] | Kd (replicate n=3, read-out: KD) [nM] | Substance | mean stoich. ratio (Biacore 8K, mean of n=3) | koff [2] [s⁻¹] | kon [3] [M⁻¹ s⁻¹] | fold drop in affinity of alanine mutant | koff (replicate n=1) [s⁻¹] | kon (replicate n=1) [M⁻¹ s⁻¹] | stoich. ratio (replicate n=1) | koff (replicate n=2) [s⁻¹] | kon (replicate n=2) [M⁻¹ s⁻¹] | stoich. ratio (replicate n=2) | koff (replicate n=3) [s⁻¹] | kon (replicate n=3) [M⁻¹ s⁻¹] | stoich. ratio (replicate n=3)
18.8 | 14.9 | 21.5 | 19.9 | K92 F26A: alanine mutant of K92 (CPEGWSECGVAIYGYACGRWGCGHALNSGPNISP) |  |  |  |  |  |  |  |  |  |  |  |  | 
497 | 437 | 411 | 644 | K92 W21A: alanine mutant of K92 (CPEGWSECGVAIYGYACGRAGCGHFLNSGPNISP) |  |  |  |  |  |  |  |  |  |  |  |  | 
 |  |  |  | SVCPDGFDWGYGCAAGSSRFCTAHDWCCYDERADSHTYGFCTGNRVENLYFQ (disulfide 3-28, 13-21, 27-41 (inferred)) [K8 R22A] | 0.27 | 0.000599 | 54000 | twofold decrease in affinity | 0.000565 | 59200 | 0.29 | 0.000672 | 53500 | 0.24 | 0.000561 | 49400 | 0.27
 |  |  |  | SVCPDGFDWGYGCAAGSSRFCTRHDWCCYDEAADSHTYGFCTGNRVENLYFQ (disulfide 3-28, 13-21, 27-41 (inferred)) [K8 R31A] | 0.75 | 0.00152 | 462 | 715 -fold | 0.00182 | 786 | 0.36 | 0.00125 | 336 | 0.71 | 0.00149 | 263 | 1.18
